Source: patent US10047051B2, “Substituted pyridines and method of use” (AbbVie S.á{acute over (.)}r.l., priority 2015, dated 2018)

Columns and labels:
[1] = target: T1, CFTR-R117H (Homo sapiens, UniProt P13569, R117H); experiment: YFP-halide influx assay for the CFTR-R117H; type: cell-based
T1 construct: expressed in transfected cells
How it was run: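 HEK293 cells reverse-transfected with a CFTR mutant and YFP H148Q/I152L/F47L halide sensor, expressed 24 h at 37° C. Fluorescence quenching followed for 7 s after I⁻ injection; activity expressed as 1−F/F0, with EC50 fitted from 1−F/F0 versus compound concentration.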

[2] = target: T2, CFTR ΔF508 (Homo sapiens, UniProt P13569, DEL508-508); experiment: TECC assay, primary bronchial epithelial cells, CFTR ΔF508; type: cell-based; conditions: primary bronchial epithelial cells of CF patients homozygous for CFTR ΔF508, treated with 3 μM VX809, increase in Isc after forskolin
T2 construct: host or cells: primary human bronchial epithelial cells from CF patients homozygous for ΔF508, pre-treated with VX809
T2 sequence (P13569 with tags, fused parts or gaps DEL508-508): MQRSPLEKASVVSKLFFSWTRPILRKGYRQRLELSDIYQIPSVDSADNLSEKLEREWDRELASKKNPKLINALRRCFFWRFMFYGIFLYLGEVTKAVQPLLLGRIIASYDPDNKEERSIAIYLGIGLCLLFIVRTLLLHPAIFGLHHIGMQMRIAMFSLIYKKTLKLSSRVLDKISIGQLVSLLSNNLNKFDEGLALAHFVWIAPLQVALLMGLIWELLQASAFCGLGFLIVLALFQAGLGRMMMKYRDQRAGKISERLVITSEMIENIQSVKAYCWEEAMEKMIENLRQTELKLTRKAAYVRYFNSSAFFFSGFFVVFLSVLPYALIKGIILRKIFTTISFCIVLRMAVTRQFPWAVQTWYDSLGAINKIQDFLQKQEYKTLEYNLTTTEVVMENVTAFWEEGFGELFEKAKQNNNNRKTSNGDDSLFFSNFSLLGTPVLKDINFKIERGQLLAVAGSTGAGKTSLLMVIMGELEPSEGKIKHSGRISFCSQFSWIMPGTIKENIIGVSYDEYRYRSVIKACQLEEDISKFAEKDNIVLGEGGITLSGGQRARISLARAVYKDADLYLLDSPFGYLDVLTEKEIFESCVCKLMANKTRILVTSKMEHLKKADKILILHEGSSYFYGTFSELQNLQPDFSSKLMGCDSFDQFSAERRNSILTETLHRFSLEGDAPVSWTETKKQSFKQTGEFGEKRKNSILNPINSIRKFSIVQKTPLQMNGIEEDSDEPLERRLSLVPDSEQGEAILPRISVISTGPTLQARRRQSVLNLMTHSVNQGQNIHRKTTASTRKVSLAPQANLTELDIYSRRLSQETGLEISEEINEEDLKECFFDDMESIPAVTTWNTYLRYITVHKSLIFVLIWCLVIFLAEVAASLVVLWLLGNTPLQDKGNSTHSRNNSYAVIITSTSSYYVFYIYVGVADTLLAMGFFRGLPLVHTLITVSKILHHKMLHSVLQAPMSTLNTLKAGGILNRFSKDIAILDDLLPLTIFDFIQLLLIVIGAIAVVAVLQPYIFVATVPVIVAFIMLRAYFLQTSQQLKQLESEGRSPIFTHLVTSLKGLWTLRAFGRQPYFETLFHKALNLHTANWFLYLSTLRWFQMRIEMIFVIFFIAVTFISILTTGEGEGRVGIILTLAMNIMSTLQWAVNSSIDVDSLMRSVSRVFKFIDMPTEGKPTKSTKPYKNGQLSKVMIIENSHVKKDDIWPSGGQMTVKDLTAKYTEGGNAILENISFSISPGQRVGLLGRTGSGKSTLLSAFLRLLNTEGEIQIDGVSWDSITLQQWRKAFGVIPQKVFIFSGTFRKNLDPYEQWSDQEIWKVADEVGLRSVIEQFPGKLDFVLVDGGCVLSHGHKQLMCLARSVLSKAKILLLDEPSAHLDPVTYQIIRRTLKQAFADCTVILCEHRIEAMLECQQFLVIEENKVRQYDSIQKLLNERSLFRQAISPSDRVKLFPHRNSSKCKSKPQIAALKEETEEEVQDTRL
Experimental: The TECC (Tranepithelial Clamp Circuit, EP-design) assay measures the functionality of the cystic fibrosis Transmembrane Conductance regulator (CFTR) by measuring the short circuit current (Isc) generated over the basolateral and apical membrane of lung epithelial cells. In TECC the transepithelial potential PD and transepithelial resistance (Rt) are measured in an open circuit and transformed to Isc using Ohm's law. 24 Wells can be measured simultaneously allowing a higher throughput compared to Ussing chambers.
For this purpose, bronchial epithelial cells isolated from CF patients homozygous for the CFTR ΔF508 mutation (hAEC-CF, Epithelix) are plated on type IV collagen-coated Transwell® supports (Costar). Human airway epithelia are generated by provision of an air-liquid interface for 21 days to form well-differentiated polarized cultures that resemble in vivo pseudo-stratified ciliated epithelium (Fulcher, M. L., Gabriel, S., Burns, K. A., Yankaskas, J. R., Randell, S. H., 2005. Well-differentiated human airway epithelial cell cultures. Methods Mol. Med. 107, 183-206). In the case of the homozygous ΔF508 CFTR samples, the differentiated cells are treated with 3 μM VX809 (2626 South Loop West, Suite 225, Houston, Tex. 77054 USA, Cat n# S1565) to allow sufficient expression of properly folded CFTR protein on the membrane (48 hours basolateral treatment and 24 hours apical treatment), prior to electrophysiological recordings. For heterozygous G551D/ΔF508, differentiated cells are used as such for the recordings.
Information on the compounds can be retrieved on the homozygous ΔF508 CFTR samples looking at increased CFTR activity when compounds are added in an acute mode or in a chronic mode. On G551D/ΔF508 CFTR heterozygous samples compounds are added in an acute mode to the differentiated cells.
For the acute mode, for electrophysiological recording, the human airway epithelia are mounted in the TECC heating plate for electrophysiological measurement and kept at 37° C. The epithelia are bathed in a NaCl-Ringer solution (120 mM NaCl, 25 mM NaHCO3, 1.2 mM CaCl2, 1.2 mM MgCl2, 0.8 mM KH2PO4, 0.8 mM K2HPO4, pH 7.4, 5 mM glucose) on both the basolateral and apical sides. Apical amiloride is used to inhibit the endogenous ENaC currents while forkolin is applied on both apical and basolateral side to stimulate CFTR. After forskolin triggering, compounds are added on both sides to test their potential for increasing CFTR gating. Measurements are done during a 20 minute timeframe with recordings every 2 minutes. The increase in Isc is used as a measure for the increased CFTR activity, EC50 values can be generated by measuring impact of different concentrations of compound on Isc on primary cells, for this purpose each transwell is treated with a different compound concentration. Inh-172, an inhibitor specific for CFTR, is used to test the specificity of the tested compounds.
For the chronic mode, the differentiated cells are treated with 3 μM VX809 (2626 South Loop West, Suite 225, Houston, Tex. 77054 USA, Cat n# S1565) and potentiator compounds at different concentrations (48 hours basolateral treatment and 24 hours apical treatment), prior to electrophysiological recordings. For electrophysiological recording, the human airway epithelia are mounted in the TECC heating plate for electrophysiological measurement and kept at 37° C. The epithelia are bathed in a NaCl-Ringer solution (120 mM NaCl, 25 mM NaHCO3, 1.2 mM CaCl2, 1.2 mM MgCl2, 0.8 mM KH2PO4, 0.8 mM K2HPO4, pH 7.4, 5 mM glucose) on both the basolateral and apical sides. Apical amiloride is used to inhibit the endogenous ENaC currents while forkolin is applied on both apical and basolateral side to stimulate CFTR. Measurements are done during a 20 minute timeframe with recordings every 2 minutes. […]

T1 sequence (P13569 whole entry R117H): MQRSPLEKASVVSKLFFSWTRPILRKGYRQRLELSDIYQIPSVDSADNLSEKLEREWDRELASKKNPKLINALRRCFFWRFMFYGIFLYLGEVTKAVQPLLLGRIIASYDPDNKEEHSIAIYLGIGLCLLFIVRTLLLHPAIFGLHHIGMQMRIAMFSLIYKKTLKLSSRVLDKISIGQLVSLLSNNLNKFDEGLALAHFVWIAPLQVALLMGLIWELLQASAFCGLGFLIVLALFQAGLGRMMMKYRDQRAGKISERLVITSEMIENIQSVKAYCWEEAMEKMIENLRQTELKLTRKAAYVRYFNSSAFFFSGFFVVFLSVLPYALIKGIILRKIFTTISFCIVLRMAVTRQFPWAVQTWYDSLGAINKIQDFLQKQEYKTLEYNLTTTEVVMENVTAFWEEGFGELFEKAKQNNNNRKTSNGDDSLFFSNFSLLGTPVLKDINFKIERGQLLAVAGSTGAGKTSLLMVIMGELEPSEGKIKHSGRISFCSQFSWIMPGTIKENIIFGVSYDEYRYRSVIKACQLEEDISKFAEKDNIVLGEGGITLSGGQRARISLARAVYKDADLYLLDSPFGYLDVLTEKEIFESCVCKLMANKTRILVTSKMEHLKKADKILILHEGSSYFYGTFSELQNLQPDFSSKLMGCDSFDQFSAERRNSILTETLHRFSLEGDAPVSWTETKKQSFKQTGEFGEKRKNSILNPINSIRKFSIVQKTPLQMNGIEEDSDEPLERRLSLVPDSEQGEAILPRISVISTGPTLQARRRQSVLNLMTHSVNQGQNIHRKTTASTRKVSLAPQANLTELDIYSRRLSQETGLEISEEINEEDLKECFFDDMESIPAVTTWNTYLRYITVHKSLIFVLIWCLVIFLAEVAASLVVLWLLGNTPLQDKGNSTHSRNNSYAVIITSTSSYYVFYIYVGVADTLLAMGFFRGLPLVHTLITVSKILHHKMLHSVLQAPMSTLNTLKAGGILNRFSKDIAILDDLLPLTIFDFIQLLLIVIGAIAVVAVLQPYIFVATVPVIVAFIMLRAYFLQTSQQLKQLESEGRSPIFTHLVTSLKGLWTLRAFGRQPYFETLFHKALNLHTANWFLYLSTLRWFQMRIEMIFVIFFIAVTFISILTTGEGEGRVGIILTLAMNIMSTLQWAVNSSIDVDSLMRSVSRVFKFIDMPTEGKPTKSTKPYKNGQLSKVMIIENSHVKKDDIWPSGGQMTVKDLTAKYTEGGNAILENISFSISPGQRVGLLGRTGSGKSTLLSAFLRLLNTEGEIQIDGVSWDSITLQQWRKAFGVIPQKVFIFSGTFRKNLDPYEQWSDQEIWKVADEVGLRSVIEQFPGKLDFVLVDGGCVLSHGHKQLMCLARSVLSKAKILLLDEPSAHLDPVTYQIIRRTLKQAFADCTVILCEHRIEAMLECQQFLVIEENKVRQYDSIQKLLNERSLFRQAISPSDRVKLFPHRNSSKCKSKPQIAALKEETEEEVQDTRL

SMILES | % Activation [1] [%] | EC50 [1] [nM] | EC50 [2] [nM]
CC(C)(O)CNC(=O)c1ncc(S(=O)(=O)c2ccc(OC(F)(F)F)cc2)cc1N [Compound 1, 3-amino-N-(2-hydroxy-2-methylpropyl)-5-{[4-(trifluoromethoxy)phenyl]sulfonyl}pyridine-2-carboxamide] | 98.5 | 598 | 95.9
Nc1cc(S(=O)(=O)c2ccc(OC(F)(F)F)cc2)cnc1C(=O)NCCO [Compound 14, 3-amino-N-(2-hydroxyethyl)-5-{[4-(trifluoromethoxy)phenyl]sulfonyl}pyridine-2-carboxamide] | 89.7 | 943 | 
Nc1cc(S(=O)(=O)c2ccc(OC(F)(F)F)cc2)cnc1C(=O)NCC(O)COCC1CC1 (stereo not drawn) [Compound 31, 3-amino-N-[3-(cyclopropylmethoxy)-2-hydroxypropyl]-5-{[4-(trifluoromethoxy)phenyl]sulfonyl}pyridine-2-carboxamide] | 100.0 | 866 | 48.4
Nc1cc(S(=O)(=O)c2ccc(OC(F)(F)F)cc2)cnc1C(=O)N1CC(O)C1 [Compound 32, (3-amino-5-{[4-(trifluoromethoxy)phenyl]sulfonyl}pyridin-2-yl)(3-hydroxyazetidin-1-yl)methanone] | 91.3 | 460 | 72.9
Nc1cc(S(=O)(=O)c2ccc(OC(F)(F)F)cc2)cnc1C(=O)N1CC(F)(F)C1 [Compound 40, (3-amino-5-{[4-(trifluoromethoxy)phenyl]sulfonyl}pyridin-2-yl)(3,3-difluoroazetidin-1-yl)methanone] | 86.71 | 291 | 62.2
COC[C@H](O)CNC(=O)c1ncc(S(=O)(=O)c2ccc(C(F)(F)F)cc2)cc1N [Compound 70, 3-amino-N-[(2R)-2-hydroxy-3-methoxypropyl]-5-{[4-(trifluoromethyl)phenyl]sulfonyl}pyridine-2-carboxamide] | 98.8 | 540 | 38.8
Nc1cc(S(=O)(=O)c2ccccc2OC(F)(F)F)cnc1C(=O)NC[C@@H](O)C(F)(F)F [Compound 81, 3-amino-N-[(2R)-3,3,3-trifluoro-2-hydroxypropyl]-5-{[2-(trifluoromethoxy)phenyl]sulfonyl}pyridine-2-carboxamide] | 113.2 | 21.8 | 9.49
C[C@H](O)CNC(=O)c1ncc(S(=O)(=O)c2ccc(C(F)(F)F)cc2)cc1N [Compound 100, 3-amino-N-[(2S)-2-hydroxypropyl]-5-{[4-(trifluoromethyl)phenyl]sulfonyl}pyridine-2-carboxamide] | 97.3 | 505 | 

More lines, now with the values ahead:

% Activation [1] [%] | EC50 [1] [nM] | EC50 [2] [nM] | SMILES
76.0 | 231 | 47.1 | CC(O)(CNC(=O)c1ncc(S(=O)(=O)c2ccc(OC(F)(F)F)cc2)cc1N)C(F)(F)F (stereo not drawn) [Compound 2, 3-amino-N-(3,3,3-trifluoro-2-hydroxy-2-methylpropyl)-5-{[4-(trifluoromethoxy)phenyl]sulfonyl}pyridine-2-carboxamide]
95.7 | 63.9 | 63.2 | Nc1cc(S(=O)(=O)c2ccc(OC(F)(F)F)cc2)cnc1C(=O)NCC(O)C(F)(F)F (stereo not drawn) [Compound 6, 3-amino-N-(3,3,3-trifluoro-2-hydroxypropyl)-5-{[4-(trifluoromethoxy)phenyl]sulfonyl}pyridine-2-carboxamide]
93.3 | 289 | 35.5 | C[C@H](O)CNC(=O)c1ncc(S(=O)(=O)c2ccc(OC(F)(F)F)cc2)cc1N [Compound 21, 3-amino-N-[(2S)-2-hydroxypropyl]-5-{[4-(trifluoromethoxy)phenyl]sulfonyl}pyridine-2-carboxamide]
91.3 | 318 | 38.6 | Nc1cc(S(=O)(=O)c2ccc(F)cc2)cnc1C(=O)NC[C@H](O)C(F)(F)F [Compound 25, 3-amino-5-[(4-fluorophenyl)sulfonyl]-N-[(2S)-3,3,3-trifluoro-2-hydroxypropyl]pyridine-2-carboxamide]
 |  | 24 | Nc1cc(S(=O)(=O)c2ccc(OC(F)(F)F)cc2)cnc1C(=O)NC[C@H](O)C(F)(F)F [Compound 26, 3-amino-N-[(2S)-3,3,3-trifluoro-2-hydroxypropyl]-5-{[4-(trifluoromethoxy)phenyl]sulfonyl}pyridine-2-carboxamide]
100.8 | 148 | 63 | Nc1cc(S(=O)(=O)c2ccc(F)cc2)cnc1C(=O)NC[C@@H](O)C(F)(F)F [Compound 36, 3-amino-5-[(4-fluorophenyl)sulfonyl]-N-[(2R)-3,3,3-trifluoro-2-hydroxypropyl]pyridine-2-carboxamide]
 |  | 13.2 | Nc1cc(S(=O)(=O)c2ccc(OC(F)(F)F)cc2)cnc1C(=O)NC[C@@H](O)C(F)(F)F [Compound 37, 3-amino-N-[(2R)-3,3,3-trifluoro-2-hydroxypropyl]-5-{[4-(trifluoromethoxy)phenyl]sulfonyl}pyridine-2-carboxamide]
